# Laboratory results from US7846939B2, “Salts and mixture of 9-oxoacridine-10-acetic acid with 1-alkylamino-1-desoxy-polyols, pharmaceutical compositions containing said agents and treatment methods” (priority 2005, dated 2010).
# System: Chlamydia
# Assay: Chronic inflammatory diseases of uterus and appendages, 250 mg i.m., 10 injections, with BAT (ofloxacin)
# Format: in vivo, human
structure (smiles),measurement,setting,value
"CC1COc2c(N3CCN(C)CC3)c(F)cc3c(=O)c(C(=O)O)cn1c23 (stereo not drawn) [Basic antibacterial therapy, BAT, ofloxacin]","Alpha-interferon, produced by the peripheral blood leukocytes, induced in culture by the Newcastle disease virus, mean",After treatment,5.3 log2 IU/ml
same,"Amount of cytoplasmic granules in peripheral blood PNLs, mean",After treatment,10.2
same,"Gamma-interferon, produced by the peripheral blood leukocytes, induced in culture by staphylococcus enterotoxin A, mean",After treatment,4.7 log2 IU/ml
same,"Serum interferon, mean",After treatment,0.8 log2 IU/ml
same,"Alpha-interferon, produced by the peripheral blood leukocytes, induced in culture by the Newcastle disease virus, mean",Before treatment,5.1 log2 IU/ml
same,"Amount of cytoplasmic granules in peripheral blood PNLs, mean",Before treatment,8.5
same,"Gamma-interferon, produced by the peripheral blood leukocytes, induced in culture by staphylococcus enterotoxin A, mean",Before treatment,4.7 log2 IU/ml
same,"Serum interferon, mean",Before treatment,0.2 log2 IU/ml
same,Etiological recovery,PCR control,69%
